{
  "source": "paper PMC7311950",
  "about": "“Potent Tetrahydroquinolone Eliminates Apicomplexan Parasites” (Frontiers in Cellular and Infection Microbiology, 2020)",
  "key": {"[1]": {"tested_on": "cytochrome P450 (CYP 450), 4 of 5 isoforms tested", "experiment": "CYP450 inhibition", "assay_type": "in vitro ADME", "conditions": "human; 4/5 isoforms"}, "[2]": {"target": "T1, P. falciparum bc1 complex cytochrome c reductase (Pfbc1) (Plasmodium falciparum, UniProt Q02768)", "T1 construct": "Parasite extract was then prepared by disruption with a sonicating probe; endogenous in cells; host or cells: P. falciparum strain 3D7 blood-stage culture, sonicated parasite extract", "T1 sequence (Q02768 1-376)": "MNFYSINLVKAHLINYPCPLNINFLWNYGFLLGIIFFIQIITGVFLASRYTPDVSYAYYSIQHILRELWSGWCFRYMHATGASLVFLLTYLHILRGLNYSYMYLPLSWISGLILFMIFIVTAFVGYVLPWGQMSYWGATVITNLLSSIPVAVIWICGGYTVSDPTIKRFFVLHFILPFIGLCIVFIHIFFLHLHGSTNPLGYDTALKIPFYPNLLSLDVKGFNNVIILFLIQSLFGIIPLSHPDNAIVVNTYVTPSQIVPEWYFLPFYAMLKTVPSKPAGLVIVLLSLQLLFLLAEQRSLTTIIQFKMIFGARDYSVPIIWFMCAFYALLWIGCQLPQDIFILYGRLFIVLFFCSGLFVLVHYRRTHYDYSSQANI", "experiment": "Pfbc1 native assay (cytochrome c reduction by parasite extract)", "assay_type": "biochemical", "conditions": "atovaquone 1 μM positive control, X ± S.D., N = 4", "description": "P. falciparum 3D7 strain were obtained from the Liverpool School of Tropical Medicine. Protease cocktail inhibitor was obtained from Roche. Bradford protein assay dye reagent was obtained from Bio-Rad. All other reagents were obtained from Sigma-Aldrich. Decylubiquinol was produced as per Fisher et al. ([2009]). In brief, 25 mg of decylubiquinone were dissolved in 400 μL of nitrogen-saturated hexane. An equal volume of aqueous 1 M sodium dithionite was added, and the mixture vortexed until colorless. The organic phase containing the decylubiquinol was collected, the solvent was evaporated under N2 and the decylubiquinol finally dissolved in 100 μL of 96% ethanol (acidified with 10 mM HCl). Concentrations of decylubiquinol was determined spectrophotometrically on a Cary 300 Bio UV/visible spectrophotometer (Varian, UK) from absolute spectra, using ε288−−320 = 8.1 mM^−1.cm^−1. Decylubiquinol was stored at −80°C and used within 2 weeks. […]\nThe protocol for the preparation of parasite extract was adapted from Fisher et al. ([2009]). […] The protein concentration of the parasite extract was determined by Bradford protein assay (Bio-Rad).\nP. falciparum bc1 complex cytochrome c reductase (Pfbc1) activity was measured by monitoring cytochrome c reduction at 550 vs. 542 nm using a Cary 300 Bio UV-Visible Spectrophotometer (Varian, UK), using a protocol adapted from Fisher et al. ([2009]). […]"}, "T. gondii RH tachyzoites": {"tested_on": "T. gondii RH tachyzoites", "experiment": "RH YFP challenge, oral nanoformulation of JAG21", "assay_type": "in vivo, Toxoplasma gondii", "conditions": "for parasite burden reduced: peritoneal fluid 5 days later", "description": "JAG21 was prepared using hydroxyethyl cellulose (HEC) and Tween 80. Briefly, this dispersant solution containing 5 mg/mL HEC and 2 mg/mL Tween 80 in water was prepared. Solid JAG21 was added to 20 mg/mL, and the dispersion was sonicated for 60 s using a Sonics vc50 probe-tip sonicator set to 20 kHz to homogenize. Sonication was performed at room temperature. Aliquots of the homogeneous dispersion were frozen and lyophilized using a VirTis AdVantage freeze drier. These aliquots were stored at room temperature for 5–6 months. Prior to dosing, aliquots were reconstituted using water. Controls containing no JAG21 were also prepared. Following reconstitution with water, the dispersion was imaged using a Nikon ECLIPSE E200 optical microscope set to 40x magnification. The average particle size of the JAG21 dispersion in HEC/Tween 80 was determined using an in-house image analysis program. This novel method to stably formulate JAG21 was discovered after all other studies were completed and this was the last experiment in this manuscript performed as a consequence.\nFor studies of the nano formulated JAG 21, this was administered for 1 or 3 days by gavage in the doses shown in the results section. These C57BL6 background mice received 2000 RH tachyzoites IP. on day the first day of the experiment and peritoneal fluid was collected 5 days later to quantitate fluorescence and numbers of parasites."}, "[3]": {"tested_on": "T. gondii RH-YFP tachyzoites", "experiment": "Synergy studies with RH strain YFP tachyzoites", "assay_type": "cell-based, Toxoplasma gondii", "description": "Atovaquone and pyrimethamine were used to test whether they are synergistic with JAG21. Serial dilutions of the combination of JAG21 and either atovaquone or pyrimethamine were used in an in vitro challenge assay as described above. The EC50 of each compound and the combination of two compounds were determined. The effect of the combination of drugs was calculated with the following formula:C= [A]c/[A]a+[B]c/[B]a. If C is lower than 1, the two compounds tested have synergistic effect; if C is >1, the two compounds tested have antagonist effect and if C is 1 they are additive."}},
  "data": [
    {"smiles": "Cc1[nH]c2c(c(=O)c1-c1ccc(Oc3ccc(OC(F)(F)F)cc3)cc1)CCCC2", "note": "[JAG21, 2-Methyl-3-(4-(4-(Trifluoromethoxy)Phenoxy)Phenyl)-5,6,7,8-Tetrahydroquinolin-4-One]", "values": [
      {"measurement": "IC50", "setting": "[1]", "value": "> 10", "unit": "µM"},
      {"measurement": "inhibition at 1 µM", "setting": "[2]", "value": "86.4 ± 3.2", "unit": "%"},
      {"measurement": "parasite burden reduced", "setting": "T. gondii RH tachyzoites; single dose 10 mg/kg", "value": "~ 60%"},
      {"measurement": "parasite burden reduced", "setting": "T. gondii RH tachyzoites; single dose 20 mg/kg", "value": "~ 60%"},
      {"measurement": "parasite burden", "setting": "T. gondii RH tachyzoites; three doses of 10 mg/kg on first 3 days, fifth day", "value": "markedly reduced"},
      {"measurement": "effect of combination with pyrimethamine", "setting": "[3]; data not shown", "value": "no antagonism was observed"},
      {"measurement": "effect of combination with atovaquone", "setting": "[3]; isobologram", "value": "synergy"}
    ]}
  ]
}
